For 11 compounds, IC50 results are on record in patent publication US20210246122A1, “Triazine Compounds and Uses Thereof” (Aduro Biotech, Inc., priority 2018, published 2021).

For test [1], the system named is cGAS/STING pathway. Nature of the test: THP1 cell-based cGAS/STING pathway activity assay (luciferase reporter linked to IRF-3 activation). As to conditions: Homo sapiens, THP-1; THP1 cells, IRF-3 linked luciferase reporter. Here is the method:
A cellular assay can be used to assess the compounds of the invention for their ability to inhibit the cGAS/STING pathway. Cells that express a luciferase-based reporter that is linked to IRF-3 activation are used to determine response as a function of compound concentration. Such an assay is described in Vincent et al., Nature Communications 2017, 8(1):750, doi: 10.1038/s41467-017-00833-9. Compounds of the invention were assessed using similar assay methods in a THP1 cell assay to generate IC50 values as provided in the following Table 8. In this table, activity level “A” indicates an IC50 value less than 20 μM, “B” indicates an IC50 value between 20 and 100 μM, and “C” indicates an IC50 value above the upper limit of the assay (100 μM), or where an IC50 value could not be generated from the data.
For orientation: Reporter assays use an easily measured gene product as a stand-in for the process of interest.

For test [2], the target named is T1, Human cGAS amino acids 155-522 (Homo sapiens, UniProt Q8N884).
T1 construct: hexahistidine tag (N, cleaved yes); made in house; host or cells: E. coli BL21 DE3 Rosetta 2
T1 sequence (Q8N884 157-522): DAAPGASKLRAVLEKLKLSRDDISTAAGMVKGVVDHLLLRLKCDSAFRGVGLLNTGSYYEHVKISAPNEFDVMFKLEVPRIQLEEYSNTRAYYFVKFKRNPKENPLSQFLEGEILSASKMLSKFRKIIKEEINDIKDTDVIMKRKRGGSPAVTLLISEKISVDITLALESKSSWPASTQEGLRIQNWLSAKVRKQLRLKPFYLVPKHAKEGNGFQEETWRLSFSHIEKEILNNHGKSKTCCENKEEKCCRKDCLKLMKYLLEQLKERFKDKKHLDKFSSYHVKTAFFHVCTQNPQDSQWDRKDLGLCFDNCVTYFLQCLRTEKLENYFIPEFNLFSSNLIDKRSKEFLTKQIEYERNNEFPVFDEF
Put plainly: cGAS activity assay (DNA-activated cGAS, remaining ATP measured by Kinase-Glo Max luciferase assay). Type of test: biochemical. As to conditions: 300 nM purified cGAS, 1 μM dsDNA, 250 μM ATP, 100 μM GTP, 37° C. for 1.25 hours. Summed up: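 Recombinant human cGAS 155-522 (300 nM) activated by 1 μM annealed dsDNA, run at 37° C for 1.25 h in Tris pH 9 buffer with 250 μM ATP and 100 μM GTP, 5% final DMSO. Compounds from 1 μM in 3- or 4-fold dilutions; remaining ATP read by luciferase luminescence, normalized to no-compound wells.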
On the technique in general: In Kinase-Glo more light means more ATP remaining.

Molecules are shown by their SMILES.

In general, IC50 refers to the midpoint of a concentration-inhibition curve. Low readings indicate higher potency, high ones lower potency. For `COC(=O)[C@H](Cc1ccc(C#N)cc1)Nc1nc(NCc2nc3cc(F)ccc3[nH]2)nc(Nc2cccc(CN3CCN(C(=O)c4ccnnc4O)CC3)c2)n1` [TA1066, methyl (S)-3-(4-cyanophenyl)-2-((4-(((5-fluoro-1H-benzo[d]imidazol-2-yl)methyl)amino)-6-((3-((4-(3-hydroxypyridazine-4-carbonyl)piperazin-1-yl)methyl)phenyl)amino)-1,3,5-triazin-2-yl)amino)propanoate], the figures for the IC50 in test [1] and in test [2] were above 100 µM and below 20 µM, respectively.

Consider `COCCOCCNC(=O)[C@H](Cc1ccc(C#N)cc1)Nc1nc(NCc2nc3cc(F)ccc3[nH]2)nc(Nc2cccc(CN3CCN(C(=O)c4nccnc4O)CC3)c2)n1` [TA1025, (S)-3-(4-cyanophenyl)-2-((4-(((5-fluoro-1H-benzo[d]imidazol-2-yl)methyl)amino)-6-((3-((4-(3-hydroxypyrazine-2-carbonyl)piperazin-1-yl)methyl)phenyl)amino)-1,3,5-triazin-2-yl)amino)-N-(2-(2-methoxyethoxy)ethyl)propanamide], for which the IC50 in test [1] is above 100 µM; in test [2] it was below 20 µM.

For `COC(=O)[C@H](Cc1ccc(C#N)cc1)Nc1nc(Nc2cccc(CN3CCN(C(=O)c4nccnc4O)CC3)c2)nc(N(C)CCc2nc3ccc(OC)cc3[nH]2)n1` [TA1053, methyl (S)-3-(4-cyanophenyl)-2-((4-((3-((4-(3-hydroxypyrazine-2-carbonyl)piperazin-1-yl)methyl)phenyl)amino)-6-((2-(6-methoxy-1H-benzo[d]imidazol-2-yl)ethyl)(methyl)amino)-1,3,5-triazin-2-yl)amino)propanoate], the IC50 in test [1] was above 100 µM; in test [2], below 20 µM.

As to `N#Cc1ccc(C[C@H](Nc2nc(NCc3nc4cc(F)ccc4[nH]3)nc(Nc3cccc(CN4CCN(C(=O)c5nccnc5O)CC4)c3)n2)C(=O)O)cc1` [TA1071, (S)-3-(4-cyanophenyl)-2-((4-(((5-fluoro-1H-benzo[d]imidazol-2-yl)methyl)amino)-6-((3-((4-(3-hydroxypyrazine-2-carbonyl)piperazin-1-yl)methyl)phenyl)amino)-1,3,5-triazin-2-yl)amino)propanoic acid], the values for the IC50 in test [1] and in test [2] were above 100 µM and below 20 µM, respectively.

Turning to `COC(=O)[C@H](Cc1ccc(C#N)cc1)Nc1nc(NCc2nc3cc(Cl)ccc3[nH]2)nc(Nc2cccc(CN3CCN(C(=O)c4c[nH]nn4)CC3)c2)n1` [TA1061, methyl (S)-2-((4-((3-((4-(1H-1,2,3-triazole-4-carbonyl)piperazin-1-yl)methyl)phenyl)amino)-6-(((5-chloro-1H-benzo[d]imidazol-2-yl)methyl)amino)-1,3,5-triazin-2-yl)amino)-3-(4-cyanophenyl)propanoate], the IC50 in test [1] is above 100 µM; in test [2] it was below 20 µM.

On to `COCCOCCOC(=O)[C@H](Cc1ccc(C#N)cc1)Nc1nc(NCc2nc3cc(F)ccc3[nH]2)nc(Nc2cccc(CN3CCN(C(=O)c4nccnc4O)CC3)c2)n1` [TA1070, 2-(2-methoxyethoxy)ethyl (S)-3-(4-cyanophenyl)-2-((4-(((5-fluoro-1H-benzo[d]imidazol-2-yl)methyl)amino)-6-((3-((4-(3-hydroxypyrazine-2-carbonyl)piperazin-1-yl)methyl)phenyl)amino)-1,3,5-triazin-2-yl)amino)propanoate], for which the IC50 in test [1] was above 100 µM; in test [2], below 20 µM.

In the case of `CNC(=O)[C@H](Cc1ccc(C#N)cc1)Nc1nc(NCc2nc3cc(F)ccc3[nH]2)nc(Nc2cccc(CN3CCN(C(=O)c4nccnc4O)CC3)c2)n1` [TA1024, (S)-3-(4-cyanophenyl)-2-((4-(((5-fluoro-1H-benzo[d]imidazol-2-yl)methyl)amino)-6-((3-((4-(3-hydroxypyrazine-2-carbonyl)piperazin-1-yl)methyl)phenyl)amino)-1,3,5-triazin-2-yl)amino)-N-methylpropanamide], the results for the concentration for half-maximal inhibition (IC50) in test [1] and in test [2] were above 100 µM and below 20 µM, respectively.

In the case of `CN(C)C(=O)[C@H](Cc1ccc(C#N)cc1)Nc1nc(NCc2nc3cc(F)ccc3[nH]2)nc(Nc2cccc(CN3CCN(C(=O)c4nccnc4O)CC3)c2)n1` [TA1021, (S)-3-(4-cyanophenyl)-2-((4-(((5-fluoro-1H-benzo[d]imidazol-2-yl)methyl)amino)-6-((3-((4-(3-hydroxypyrazine-2-carbonyl)piperazin-1-yl)methyl)phenyl)amino)-1,3,5-triazin-2-yl)amino)-N,N-dimethylpropanamide], the IC50 in test [1] was above 100 µM; in test [2], below 20 µM.

Consider `COC(=O)[C@H](Cc1ccc(C#N)cc1)Nc1nc(NCc2nc3cc(F)ccc3[nH]2)nc(Nc2cccc(CN3CCN(C(=O)c4nccnc4O)CC3)c2)n1` [TA1020, methyl (S)-3-(4-cyanophenyl)-2-((4-(((5-fluoro-1H-benzo[d]imidazol-2-yl)methyl)amino)-6-((3-((4-(3-hydroxypyrazine-2-carbonyl)piperazin-1-yl)methyl)phenyl)amino)-1,3,5-triazin-2-yl)amino)propanoate], for which the IC50 in test [1] is above 100 µM; in test [2], below 20 µM.

As to `COC(=O)[C@@H](Cc1ccc(C#N)cc1)Nc1nc(NCc2nc3cc(F)ccc3[nH]2)nc(Nc2cccc(CN3CCN(C(=O)c4nccnc4O)CC3)c2)n1` [TA1027, methyl (R)-3-(4-cyanophenyl)-2-((4-(((5-fluoro-1H-benzo[d]imidazol-2-yl)methyl)amino)-6-((3-((4-(3-hydroxypyrazine-2-carbonyl)piperazin-1-yl)methyl)phenyl)amino)-1,3,5-triazin-2-yl)amino)propanoate], the IC50 is above 100 µM in test [1] and below 20 µM in test [2].

In the case of `COCCNC(=O)[C@H](Cc1ccc(C#N)cc1)Nc1nc(NCc2nc3cc(F)ccc3[nH]2)nc(Nc2cccc(CN3CCN(C(=O)c4nccnc4O)CC3)c2)n1` [TA1018, (S)-3-(4-cyanophenyl)-2-((4-(((5-fluoro-1H-benzo[d]imidazol-2-yl)methyl)amino)-6-((3-((4-(3-hydroxypyrazine-2-carbonyl)piperazin-1-yl)methyl)phenyl)amino)-1,3,5-triazin-2-yl)amino)-N-(2-methoxyethyl)propanamide], the IC50 in test [1] is above 100 µM; in test [2], below 20 µM.
